Key:
[1] = system: RPE and PRC; test: Subretinal injection of OAβ in WT mice +/- ELVs (RPE flat mount, OCT, qPCR, Western blot); type: in vivo; conditions: for OAβ-activated senescence program (p16INK4a, MMP1, p53, p21, p27, Il-6, SASP secretome) followed by RPE and PRC demise: summary of mouse and human RPE data
Source text: (A) In vivo experimental design: 6-month-old C57BL/6J WT mice were divided into 7 groups (n=12/group): non-injected, PBS, OAβ only, OAβ+ELV-N-32, OAβ+ELV-N-34, ELV-N-32 only and ELV-N-34 only. On day 3, mRNA were isolated for Real-Time PCR. On day 7, mice were subjected to OCT and then eyes enucleated and processed for whole mount RPE staining and Western blots. (B) Whole flat mount of RPE with tight junction marker, Zonula occludens-1 (ZO-1) antibody. OAβ disrupted RPE morphology. (C) OAβ effects on retina and RPE by OCT. (D) Thickness of PRC layer was thinner in OAβ injected group. (E) RPE gene expression after Oaβ (1-42) injection and treatment with ELVs. (E-G) Gene expression in the same functional group were plotted. Senescence- and AMD-related genes (E), and collagenases, gelatinase, stromelysins and others matrix metalloproteinases (MMP) (F) and autophagy (G). (H) p16INK4a, a key marker for senescence, western blots of RPE. (I) Retina apoptosis gene expression after OAβ (1-42) injection and treatment with ELVs. (*P<0.05, student t-test).
ELVs restore RPE morphology and reduce gene expression after subretinal injection of OAβ in WT mice. (A) Mice were divided into 7 groups: non-injected, PBS, OAβ only, OAβ+ELV-N-32, OAβ+ELV-N-34, ELV-N-32 only and ELV-N-34 only. On day 3, mRNA were isolated for RT-PCR. On day 7, mice were subjected to OCT and then eyes were enucleated and processed to whole mount RPE staining and Western blot. (B) Whole flat mount of RPE. OAβ disrupted RPE morphology. However, RPE were less damage in the ELVs treatment group as well as PBS, ELVs alone did non induce changes. (C) Evaluation the OAβ effects on retina and RPE by OCT. (D) The thickness of PRC was thin in the OAβ injected group. OAβ cause the cell death of PRC, as the thinner in OCT measurement. (E) RPE gene expression after OAβ (1-42) injection and treatment with ELVs. 3 days after injection, the RNAs from RPE were isolated, reverse transcribed into cDNA and subjected to RT-PCR with different primers. Genes in the same functional group were plotted in the same chart, including senescence- and AMD-related genes (E), and collagenases, gelatinase, stromelysins and others matrix metalloproteinases (MMP) (F) and autophagy (G). (H) p16INK4a western blots of RPE/Choroid. […] (I) Retina gene expression after OAβ (1-42) injection and treatment with ELVs. OAβ activates apoptosis genes in the retina. […] (*P<0.05, using student t-test comparison).
All animal experiments were performed according to ARVO Statement for the Use of Animals in Ophthalmic and Vision Research, and the protocol was approved by LSU Health New Orleans' Institutional Animal Care and Use Committee (IACUC). 6-month-old 5×FAD mice (stock number: 34848-JAX, The Jackson Laboratory, Bar Harbor, Me., USA), co-overexpress FAD mutant forms of human amyloid precursor protein (the Swedish mutation: K670N, M671L; the Florida mutation: I716V; and the London mutation: V7171) and presenilin 1 (PS1, encoded by Psen1: M146L, L286V) transgenes under transcriptional control of the neuron-specific mouse Thy1 promoter. 5×FAD mice were hemizygotes with respect to the transgenes and non-transgenic WT littermates. Genotyping was performed by PCR of tail DNA. All analyses were carried out blind with respect to the mice genotype. For the subretinal injection, 6-month-old C57BL/6J mice were anesthetized by an intraperitoneal injection of ketamine/xylazine, pupils dilated with 1.0% tropicamide (Akorn, Ill., USA); and 0.5% Proparacaine Hydrochloride (Akorn) was applied for topical anesthesia. Eyes were punctured with a 30-gauge needle between the corneoscleral junction and the ora serrata into the vitreous cavity without disturbing the lens. Compounds were delivered to the subretinal region using a 33-gauge blunt needle attached to a 5p.1 Hamilton syringe (Hamilton Company, Reno, Nev., USA) under a dissecting microscope. Non-injected mice were used as negative control while the PBS injected mice were used for sham. […]

[2] = system: hypothalamic neurons; test: Microelectrode array (MEA) recording of organotypic hypothalamic slices; type: cell-based, Leprdb (db/db diabetic) mice; conditions: 500 nM; db/db male and female mice
Protocol: We determined whether ex vivo organotypic culture of hypothalamic slices (200 μm in thickness) obtained from brains of C57BL/6J (WT) mice and age matched Leprdb (db/db diabetic) mice were electrically active and capable of firing trains of action potentials using Maestro microelectrode arrays (MEA) performed with MaestroPro MEA system from Axion Biosystems, GA.
MEA measurements were carried out using a 48-well Microelectrode array (MEA) plate (M768-tMEA-48W) from Axion Biosystems, GA. Each well of the MEA plate, contained a 4×4 grid of […] circular nanoporous PEDOT electrodes embedded in the cell culture substrate, with a pole-to-pole electrode spacing of […]. In preparation for seeding hypothalamic slices, the wells were treated with 0.1% polyethylenimine (PEI) in sodium borate buffer, pH 8.4. Wells were then pre-coated in laminin (6 μg/mL) and the hypothalamic slices (200 μm in thickness) were plated on the electrode grid. […]
Extracellular recordings of spontaneous action potentials were performed in culture medium at 37° C. using the standard neural setting of the MaestroPro MEA system and AxIS software version 1.5.1.12. […] Recorded spike number per electrode were averaged after disregarding noisy electrodes from analysis. […]
Using the MEA system, population level electrical activity was recorded from different hypothalamic neurons. […]

[3] = system: RPE single-cells; test: UOS-induced transcriptome changes in RPE single-cells; type: cell-based
Source text: Dots in box plots represent expression of the gene for a single RPEC (total of 96 per sample). P<0.001 (***), P<0.01 (**), One-way Anova, with Post-Hoc Tukey HSD test for multiple comparisons.

[4] = system: primary human RPE cells; test: Primary human RPE cells treated with 10 μM OAβ +/- ELVs (SA-β-Gal staining, qPCR); type: cell-based; conditions: 3 days qPCR, 7 days staining
Protocol: (A) In vitro experimental design: Primary human RPE cells were treated with 10 μM OAβ+/−ELVs. After 3 days, RNA was isolated and qPCR analyzed. After 7 days, cells were subjected to β-Galactosidase staining. (B) Live cell images under bright field microscopy after 7 days. (C) β-Gal staining+/−ELVs. Quantitation of % for the β-Gal positive cells. ELVs decreased positive senescent cells. (D) Gene transcription of senescence, AMD-related and autophagy genes after OAβ (1-42) exposure+/−ELVs. (*P <0.05, student t-test).
OAβ toxicity is counteracted by ELVs in primary hRPE. (A) Primary hRPE cells were treated with 10 μM OAβ with or without adding ELVs. After 3 days, the total RNA was isolated and q-PCR analyzed. After 7 days, cells were subjected to β-Galactosidase staining. (B) Live cell images of primary hRPE under bright field microscope imaging after 7 days. (C) β-Galactosidase staining of primary hRPE, +/−ELVs. Quantitation of % for the β-Gal positive cells. ELVs decreased positive senescent cells. […]
Cells were visualized using SA-β-Gal staining kit (Cat 9860, Cell Signaling Technology, MA, USA). […] Pictures were taken under brightfield microscope (Nikon Eclipse TS100) 200× magnification after the development of blue color, and cells counted in 10 different random fields per well. […]

[5] = methyl ester or sodium salt; administered 1 hour following 2 hours of ischemia; cited from earlier work
[6] = system: human RPE cells; test: Oxidative-stress and Erastin induced cell death in human RPE cells; type: cell-based
[7] = co-injected with OAβ subretinally, then topical ELV, day 7

OAβ: oligomerized Aβ (1-42) peptide, used as cytotoxic stressor [reference compound]
PRC layer thickness (OCT) ([1]; OAβ-injected retina, non-injected retina 105 μm): 35 μm

CC/C=C\C[C@H](O)\C=C/C=C/C=C/[C@H](O)C/C=C\C/C=C\CCCCCCCCCCCCCCC(=O)[O-].[Na+] [ELV-34-6 Na, sodium (16Z,19Z,22R,23E,25E,27Z,29S,31Z)-22,29-dihydroxytetratriaconta-16,19,23,25,27,31-hexaenoate]
spiking activity of hypothalamic slices (MEA) [2]: synchronous spiking is restored

CC/C=C\C[C@H](O)\C=C/C=C/C=C/[C@H](O)C/C=C\C/C=C\CCCCCCCCCCCCC(=O)O [ELV-N-32]
UOS-induced up-regulation of pro-inflammatory transcriptome and down-regulation of pro-homeostatic pathways [3]: suppress these changes
OAβ effects: RPE cell morphology, SASP (SA-β-Gal), senescence, AMD, MMP and autophagy gene expression [4]: reverted these effects
cell survival [5]: promoted cell survival
infarct volumes [5]: reduced infarct volumes
neurovascular unit disruption [5]: diminished neurovascular unit disruption
oxidative-stress and Erastin induced cell deaths [6]: counteracted
PRC degeneration / ONL after ELV injected alone ([1]; ELV alone, no OAβ, subretinal): did not yield PRC degeneration
PRC protection (PRC layer, OCT) [1, 7]: protection of PRC
RPE morphology (ZO-1 whole flat mount) [1, 7]: restoration of RPE morphology
p16INK4a protein (western blot of RPE/Choroid) ([1]; elevated by OAβ injection, day 7): down regulated
OAβ-activated senescence program (p16INK4a, MMP1, p53, p21, p27, Il-6, SASP secretome) followed by RPE and PRC demise [1]: blunt these events and elicit protection to both cells
OAβ-activated senescence program (p16INK4a, MMP1, p53, p21, p27, Il-6, SASP secretome) followed by RPE and PRC demise ([1]; listed as ELV 32): downregulatory mediators of OAβ-evoked senescence
OAβ-activated senescence program (p16INK4a, MMP1, p53, p21, p27, Il-6, SASP secretome) followed by RPE and PRC demise ([1]; listed as elovanoid 32): blunt these events and elicits protection

CC/C=C\C[C@H](O)\C=C/C=C/C=C/[C@H](O)C/C=C\C/C=C\CCC(=O)O [NPD1, 10R,17S-dihydroxy-docosa-4Z,7Z,11E,13E,15Z,19Z-hexaenoic acid, reference compound]
UOS-induced up-regulation of pro-inflammatory transcriptome and down-regulation of pro-homeostatic pathways [3]: suppress these changes
oxidative-stress and Erastin induced cell deaths [6]: counteracted
